# Earlier results, collected in patent publication US20200215149A1, “N-Phenylacetyl-L-prolylglycine ethyl ester compositions and methods for using the same” (priority 2019, published 2020).
# Read-outs that look alike come from different tables or passages of the source. Where a SMILES comes first, the peptide text is derived from it. The star is where a group is joined. PhAc = O=C(Cc1ccccc1)*
# Columns and labels:
# [1] = Ostrovskaya, et al. (2008); Hayakawa, et al. (2007)
# [2] = ratio versus piracetam; Neznamov and Teleshova (2009)
Structure (SMILES),"side effects (humans who consume effective doses of CBD, Bergamaschi, et al. (2011))",tolerance or addiction [1],"effective dose, times smaller in mass than the effective dose of piracetam [2]","side effects (healthy human subjects, compared with piracetam, Neznamov and Teleshova (2009))"
"C=C(C)[C@@H]1CCC(C)=C[C@H]1c1c(O)cc(CCCCC)cc1O [CBD, cannabidiol]",generally does not cause significant side effects,neither noopept nor CBD has been shown to cause the user to become tolerant or addicted,,
"CCOC(=O)CNC(=O)[C@@H]1CCCN1C(=O)Cc1ccccc1 [noopept, N-Phenylacetyl-L-prolylglycine ethyl ester] (PhAc-Pro-Gly-OEt)",,neither noopept nor CBD has been shown to cause the user to become tolerant or addicted,over 50 times,fewer side effects
